Measured values from the NIST ThermoML archive (doi:10.1021/je900878j).
Numbers after ± are expanded uncertainties.

Settings: 101.33 kPa, Liquid; for electrical conductivity: Symmetrical Wheatstone bridge; for viscosity: Capillary tube (Ostwald / Ubbelohde) method; for mass density: Vibrating tube method

| Structure (SMILES) | electrical conductivity (258.15 K) [S/m] | electrical conductivity (268.15 K) [S/m] | electrical conductivity (278.15 K) [S/m] | electrical conductivity (288.15 K) [S/m] | viscosity (293.15 K) [mPa·s] | viscosity (298.15 K) [mPa·s] | electrical conductivity (298.15 K) [S/m] | mass density (298.15 K) [kg/m3] | viscosity (303.15 K) [mPa·s] | electrical conductivity (303.15 K) [S/m] | mass density (303.15 K) [kg/m3] | viscosity (313.15 K) [mPa·s] | electrical conductivity (313.15 K) [S/m] | mass density (313.15 K) [kg/m3] | viscosity (323.15 K) [mPa·s] | electrical conductivity (323.15 K) [S/m] | mass density (323.15 K) [kg/m3] | viscosity (333.15 K) [mPa·s] | electrical conductivity (333.15 K) [S/m] | mass density (333.15 K) [kg/m3] | also measured |
| --- | --- | --- | --- | --- | --- | --- | --- | --- | --- | --- | --- | --- | --- | --- | --- | --- | --- | --- | --- | --- | --- |
| CCn1cc[n+](C)c1.N#CN=C=[N-] [1-ethyl-3-methylimidazolium dicyanamide] | 0.6305 ± 0.005 | 1.035 ± 0.0083 | 1.556 ± 0.012 | 2.189 ± 0.018 | 16.85 ± 0.46 | 14.5 ± 0.39 | 2.928 ± 0.023 | 1100.8 ± 2.3 | 12.62 ± 0.34 | 3.342 ± 0.027 | 1097.5 ± 2.3 | 9.8 ± 0.27 | 4.226 ± 0.034 | 1091 ± 2.3 | 7.83 ± 0.21 | 5.194 ± 0.042 | 1084.4 ± 2.2 | 6.43 ± 0.18 | 6.236 ± 0.05 | 1077.9 ± 2.2 | electrical conductivity (238.15 K): 0.1546 ± 0.0012 S/m; electrical conductivity (248.15 K): 0.3404 ± 0.0027 S/m; viscosity (258.15 K): 75.38 ± 2.1 mPa·s; viscosity (263.15 K): 56.81 ± 1.5 mPa·s; viscosity (268.15 K): 44.24 ± 1.2 mPa·s; viscosity (273.15 K): 35.22 ± 0.96 mPa·s; viscosity (278.15 K): 28.59 ± 0.78 mPa·s; viscosity (288.15 K): 19.81 ± 0.54 mPa·s; viscosity (343.15 K): 5.36 ± 0.15 mPa·s; electrical conductivity (343.15 K): 7.343 ± 0.059 S/m; viscosity (353.15 K): 4.55 ± 0.12 mPa·s; electrical conductivity (353.15 K): 8.509 ± 0.068 S/m |
| CCn1cc[n+](C)c1.F[B-](F)(F)F [1-ethyl-3-methylimidazolium tetrafluoroborate] | 0.2333 ± 0.0019 | 0.4316 ± 0.0034 | 0.7168 ± 0.0057 | 1.096 ± 0.0088 | 44.19 ± 1.2 | 36.17 ± 0.98 | 1.573 ± 0.013 | 1288.8 ± 3.2 | 30.13 ± 0.82 | 1.847 ± 0.015 | 1285 ± 3.2 | 21.77 ± 0.59 | 2.466 ± 0.02 | 1277.5 ± 3.2 | 16.35 ± 0.45 | 3.176 ± 0.025 | 1269.9 ± 3.1 | 12.7 ± 0.35 | 3.97 ± 0.032 | 1262.4 ± 3.1 | electrical conductivity (238.15 K): 0.04188 ± 0.00034 S/m; electrical conductivity (248.15 K): 0.1088 ± 0.00087 S/m; viscosity (269.15 K): 145 ± 4.6 mPa·s; viscosity (273.15 K): 114.1 ± 3.4 mPa·s; viscosity (278.15 K): 86.88 ± 2.5 mPa·s; viscosity (288.15 K): 54.1 ± 1.5 mPa·s; viscosity (343.15 K): 10.12 ± 0.28 mPa·s; electrical conductivity (343.15 K): 4.843 ± 0.039 S/m; viscosity (353.15 K): 8.23 ± 0.22 mPa·s; electrical conductivity (353.15 K): 5.794 ± 0.046 S/m |
| CCCCn1cc[n+](C)c1.F[B-](F)(F)F [1-butyl-3-methylimidazolium tetrafluoroborate] | 0.02318 ± 0.00019 | 0.05477 ± 0.00044 | 0.1137 ± 0.00091 | 0.2116 ± 0.0017 | 141.1 ± 4.4 | 107.6 ± 3.2 | 0.3587 ± 0.0029 | 1202.4 ± 2.8 | 83.3 ± 2.3 | 0.4543 ± 0.0036 | 1198.6 ± 2.8 | 52.81 ± 1.4 | 0.6913 ± 0.0055 | 1191.6 ± 2.7 | 35.53 ± 0.97 | 0.9942 ± 0.008 | 1184.5 ± 2.7 | 25.11 ± 0.68 | 1.364 ± 0.011 | 1177.3 ± 2.7 | viscosity (343.15 K): 18.48 ± 0.5 mPa·s; electrical conductivity (343.15 K): 1.8 ± 0.014 S/m; viscosity (353.15 K): 14.06 ± 0.38 mPa·s; electrical conductivity (353.15 K): 2.301 ± 0.018 S/m |
| CCn1cc[n+](C)c1.O=S(=O)([N-]S(=O)(=O)C(F)(F)F)C(F)(F)F | 0.1475 ± 0.0012 | 0.2671 ± 0.0021 | 0.4347 ± 0.0035 | 0.6526 ± 0.0052 | 39.07 ± 1.1 | 32.46 ± 0.88 | 0.921 ± 0.0074 | 1519.3 ± 4.5 | 27.3 ± 0.74 | 1.074 ± 0.0086 | 1514.2 ± 4.5 | 19.97 ± 0.54 | 1.414 ± 0.011 | 1504.3 ± 4.4 | 15.17 ± 0.41 | 1.799 ± 0.014 | 1494.3 ± 4.4 | 11.87 ± 0.32 | 2.224 ± 0.018 | 1484.4 ± 4.3 | electrical conductivity (248.15 K): 0.0705 ± 0.00056 S/m; viscosity (263.15 K): 175.1 ± 5.8 mPa·s; viscosity (268.15 K): 128.8 ± 4 mPa·s; viscosity (278.15 K): 75.13 ± 2.1 mPa·s; viscosity (288.15 K): 47.78 ± 1.3 mPa·s; viscosity (343.15 K): 9.54 ± 0.26 mPa·s; electrical conductivity (343.15 K): 2.689 ± 0.021 S/m; viscosity (353.15 K): 7.83 ± 0.21 mPa·s; electrical conductivity (353.15 K): 3.189 ± 0.025 S/m |
